A word on the DC50: it is the midpoint of the concentration-degradation curve. A high value points to a less potent degrader. The term Dmax denotes the greatest extent of degradation seen. Low readings indicate a partial loss of target, high ones a fuller loss of target.

Some results are limits rather than exact numbers.

Among the data in patent US20230322761A1, “DEGRADATION OF BRUTON'S TYROSINE KINASE (BTK) BY CONJUGATION OF BTK INHIBITORS WITH E3 LIGASE LIGAND AND METHODS OF USE” (BEIGENE, LTD., priority 2020, published 2023) are DC50 and Dmax values, retold here.

In this test the target is T1, BTK (Homo sapiens, UniProt Q06187).
T1 construct: endogenous in cells; host or cells: TMD-8 cells
T1 sequence (Q06187 whole entry): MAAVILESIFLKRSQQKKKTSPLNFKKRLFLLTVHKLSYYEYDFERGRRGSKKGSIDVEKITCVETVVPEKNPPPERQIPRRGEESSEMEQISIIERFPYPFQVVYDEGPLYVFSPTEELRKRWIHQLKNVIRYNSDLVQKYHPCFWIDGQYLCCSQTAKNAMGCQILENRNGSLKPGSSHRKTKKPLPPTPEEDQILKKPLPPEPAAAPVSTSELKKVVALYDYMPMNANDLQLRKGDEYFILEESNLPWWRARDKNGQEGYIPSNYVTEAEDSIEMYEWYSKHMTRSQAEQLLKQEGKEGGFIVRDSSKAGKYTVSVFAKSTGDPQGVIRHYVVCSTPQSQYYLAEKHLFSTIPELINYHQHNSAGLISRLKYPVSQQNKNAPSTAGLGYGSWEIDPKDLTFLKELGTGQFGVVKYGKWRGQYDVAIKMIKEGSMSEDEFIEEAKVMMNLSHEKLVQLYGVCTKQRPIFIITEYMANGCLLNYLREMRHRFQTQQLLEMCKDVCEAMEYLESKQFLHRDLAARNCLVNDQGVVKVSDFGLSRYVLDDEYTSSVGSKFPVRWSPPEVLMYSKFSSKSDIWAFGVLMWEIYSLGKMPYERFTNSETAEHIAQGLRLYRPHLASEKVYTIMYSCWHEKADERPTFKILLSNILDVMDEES
Description: BTK degradation in TMD-8 cells, HTRF assay after 6 h treatment. It counts as cell-based. To be noted: for DC50: IC50 (DC50) of BTK degradation; for Dmax: TMD8, maximum percentage of inhibition (degradation). As for the experimental part: TMD-8 cells are treated with compounds diluted in 0.2% DMSO, dilution is done according to the following protocol: (1) make 500× stock solution in DMSO from 1 mM by 6-fold dilution, total 8 doses were included; (2) make 2× solution in cell culture medium by transferring 0.5 μl 500× stock solution into 125 μl medium; (3) 15 μl of 2× solution is added to cells and incubate for 6 h.
After 6 h treatment, add 10 μl 4×lysis buffer to each well; seal the plate and incubate 30 min at room temperature on a plate shaker; Once the cells are lysed, 16 μL of cell lysate are transferred to a PE 384-well HTRF detection plate; 4 μL of pre-mixed HTRF antibodies are added to each well; Cover the plate with a plate sealer, spin 1000 rpm for 1 min, Incubate overnight at room temperature; Read on BMG PheraStar with HTRF protocol (337 nm-665 nm-620 nm).
The IC50 (DC50) value of a compound can be obtained by fitting the following equation
Y=Bottom+(TOP−Bottom)/(1+((IC50/X)^hillslope))
Wherein, X and Y are known values, and IC50, Hillslope, Top and Bottom are the parameters obtained by fitting with software. Y is the inhibition percentage (calculated from the equation), X is the concentration of the compound; IC50 is the concentration of the compound when the 50% inhibition is reached. The smaller the IC50 value is, the stronger the inhibitory ability of the compound is. Vice versa, the higher the IC50 value is, the weaker the ability the inhibitory ability of the compound is; Hillslope represents the slope of the fitted curve, generally around 1*; Bottom represents the minimum value of the curve obtained by data fitting, which is generally 0%±20%; Top represents the maximum value of the curve obtained by data fitting, which is generally 100%±20%. The experimental data were fitted by calculating and analyzing with Dotmatics data analysis software.
On the technique in general: In TR-FRET formats the signal depends on donor and acceptor labels being close together.

The molecule `COc1cc(N2CCC(=O)NC2=O)ccc1N1CCC(CN2CCN(c3ccc(-c4cnc5[nH]nc(-c6ccc([C@@H](C)NC(=O)c7noc(C(C)(C)C)n7)c(C)c6)c5c4)cc3)CC2)CC1` [Example 171, (R)-5-(tert-butyl)-N-(1-(4-(5-(4-(4-((1-(4-(2,4-dioxotetrahydropyrimidin-1(2H)-yl)-2-methoxyphenyl)piperidin-4-yl)methyl)piperazin-1-yl)phenyl)-1H-pyrazolo[3,4-b]pyridin-3-yl)-2-methylphenyl)ethyl)-1,2,4-oxadiazole-3-carboxamide] displayed a DC50 of 3.52 nM.

`Cc1cc(-c2n[nH]c3ncc(-c4ccc(C5(O)CCN(CC6CCN(c7ccc(N8CCC(=O)NC8=O)cc7)CC6)CC5)cc4)cc23)ccc1[C@@H](C)NC(=O)c1nc(C(C)(C)C)no1` [Example 201, (R)-3-(tert-butyl)-N-(1-(4-(5-(4-(1-((1-(4-(2,4-dioxotetrahydropyrimidin-1(2H)-yl)phenyl)piperidin-4-yl)methyl)-4-hydroxypiperidin-4-yl)phenyl)-1H-pyrazolo[3,4-b]pyridin-3-yl)-2-methylphenyl)ethyl)-1,2,4-oxadiazole-5-carboxamide] displayed a DC50 of 1.79 nM.

`Cc1cc(-c2n[nH]c3ncc(-c4ccc(N5CCN(CC6CCN(c7ccc(C8CCC(=O)NC8=O)cc7)C6)CC5)cc4)cc23)ccc1[C@@H](C)NC(=O)c1noc(C(C)(C)C)n1` (stereo partly drawn) [Example 191, 5-(tert-butyl)-N-((1R)-1-(4-(5-(4-(4-((1-(4-(2,6-dioxopiperidin-3-yl)phenyl)pyrrolidin-3-yl)methyl)piperazin-1-yl)phenyl)-1H-pyrazolo[3,4-b]pyridin-3-yl)-2-methylphenyl)ethyl)-1,2,4-oxadiazole-3-carboxamide] came in with a DC50 of 7.34 nM.

`Cc1cc(-c2n[nH]c3ncc(-c4ccc(N5CCN(CC6CCN(c7ccc(N8CCC(=O)NC8=O)cc7)CC6)CC5)cc4)cc23)ccc1[C@@H](C)NC(=O)c1ccc(C(C)(C)O)cc1F` [Example 96, (R)—N-(1-(4-(5-(4-(4-((1-(4-(2,4-dioxotetrahydropyrimidin-1(2H)-yl)phenyl)piperidin-4-yl)methyl)piperazin-1-yl)phenyl)-1H-pyrazolo[3,4-b]pyridin-3-yl)-2-methylphenyl)ethyl)-2-fluoro-4-(2-hydroxypropan-2-yl)benzamide]: the DC50 is over 2000 nM.

In turn, `Cc1cc(-c2n[nH]c3ncc(-c4ccc(N5CCN(CC6CCN(c7ccc(N8CCC(=O)NC8=O)cc7C)CC6)CC5)cc4)cc23)ccc1[C@@H](C)NC(=O)c1noc(C(C)(C)C)n1` [Example 135, (R)-5-(tert-butyl)-N-(1-(4-(5-(4-(4-((1-(4-(2,4-dioxotetrahydropyrimidin-1(2H)-yl)-2-methylphenyl)piperidin-4-yl)methyl)piperazin-1-yl)phenyl)-1H-pyrazolo[3,4-b]pyridin-3-yl)-2-methylphenyl)ethyl)-1,2,4-oxadiazole-3-carboxamide] yielded a DC50 of 12.7 nM.

With `Cc1cc(-c2n[nH]c3ncc(-c4ccc(C5CCN(CCc6ccc(N7CCC(=O)NC7=O)cc6)CC5)cc4)cc23)ccc1CNC(=O)c1noc(C(C)(C)C)n1` [Example 6, 5-(tert-butyl)-N-(4-(5-(4-(1-(4-(2,4-dioxotetrahydropyrimidin-1(2H)-yl)phenethyl)piperidin-4-yl)phenyl)-1H-pyrazolo[3,4-b]pyridin-3-yl)-2-methylbenzyl)-1,2,4-oxadiazole-3-carboxamide], the DC50 stood at 2.94 nM and the Dmax came out at 97%.

In the case of `Cc1cc(-c2n[nH]c3ncc(-c4ccc(C5CCN(CCc6ccc(C7CCC(=O)NC7=O)c7c6CCCC7)CC5)cc4)cc23)ccc1CNC(=O)c1nc(C(C)(C)C)no1` (stereo not shown) [Example 26, 3-(tert-butyl)-N-(4-(5-(4-(1-(2-(4-(2,6-dioxopiperidin-3-yl)-5,6,7,8-tetrahydronaphthalen-1-yl)ethyl)piperidin-4-yl)phenyl)-1H-pyrazolo[3,4-b]pyridin-3-yl)-2-methylbenzyl)-1,2,4-oxadiazole-5-carboxamide], half-maximal degradation (DC50) was put at 28.9 nM and the Dmax worked out at 94.3%.

With `Cc1cc(-c2n[nH]c3ncc(-c4ccc(N5CCN(CCc6ccc(C7CCC(=O)NC7=O)c(F)c6)CC5)cc4)cc23)ccc1[C@@H](C)NC(=O)c1noc(C(C)(C)C)n1` (stereo partly drawn) [Example 36, 5-(tert-butyl)-N-((1R)-1-(4-(5-(4-(4-(4-(2,6-dioxopiperidin-3-yl)-3-fluorophenethyl)piperazin-1-yl)phenyl)-1H-pyrazolo[3,4-b]pyridin-3-yl)-2-methylphenyl)ethyl)-1,2,4-oxadiazole-3-carboxamide], the DC50 is 3 nM and the Dmax was 98.3%.

`Cc1cc(-c2n[nH]c3ncc(-c4ccc(C5CCN(CC6CCN(c7ccc(N8CCC(=O)NC8=O)cc7)CC6)CC5)cc4)cc23)c(F)cc1CNC(=O)c1nc(C(C)(C)C)no1` [Example 220, 3-(tert-butyl)-N-(4-(5-(4-(1-((1-(4-(2,4-dioxotetrahydropyrimidin-1(2H)-yl)phenyl)piperidin-4-yl)methyl)piperidin-4-yl)phenyl)-1H-pyrazolo[3,4-b]pyridin-3-yl)-5-fluoro-2-methylbenzyl)-1,2,4-oxadiazole-5-carboxamide] registered a DC50 of 3.85 nM.

The molecule `Cc1cc(-c2n[nH]c3ncc(-c4ccc(C5CCN(CC6CCN(c7ccc(N8CCC(=O)NC8=O)c(C)c7)CC6)CC5)nc4)cc23)ccc1CNC(=O)c1nc(C(C)(C)C)no1` [Example 105, 3-(tert-butyl)-N-(4-(5-(6-(1-((1-(4-(2,4-dioxotetrahydropyrimidin-1(2H)-yl)-3-methylphenyl)piperidin-4-yl)methyl)piperidin-4-yl)pyridin-3-yl)-1H-pyrazolo[3,4-b]pyridin-3-yl)-2-methylbenzyl)-1,2,4-oxadiazole-5-carboxamide] registered a DC50 of 3.55 nM.

The molecule `Cc1cc(-c2n[nH]c3ncc(-c4ccc(C5(O)CCN(CC6CCN(c7ccc(N8CCC(=O)NC8=O)cc7)CC6)CC5)cn4)cc23)ccc1[C@@H](C)NC(=O)c1nc(C(C)(C)C)no1` [Example 204, (R)-3-(tert-butyl)-N-(1-(4-(5-(5-(1-((1-(4-(2,4-dioxotetrahydropyrimidin-1(2H)-yl)phenyl)piperidin-4-yl)methyl)-4-hydroxypiperidin-4-yl)pyridin-2-yl)-1H-pyrazolo[3,4-b]pyridin-3-yl)-2-methylphenyl)ethyl)-1,2,4-oxadiazole-5-carboxamide] displayed a 50% degradation concentration (DC50) of 2.02 nM.

Regarding `Cc1cc(-c2n[nH]c3ncc(-c4ccc(N5CCN(CC6CCN(c7ccc(N8CCC(=O)NC8=O)c(C)c7)CC6)CC5)cn4)cc23)ccc1[C@@H](C)NC(=O)c1noc(C(C)(C)C)n1` [Example 78, (R)-5-(tert-butyl)-N-(1-(4-(5-(5-(4-((1-(4-(2,4-dioxotetrahydropyrimidin-1(2H)-yl)-3-methylphenyl)piperidin-4-yl)methyl)piperazin-1-yl)pyridin-2-yl)-1H-pyrazolo[3,4-b]pyridin-3-yl)-2-methylphenyl)ethyl)-1,2,4-oxadiazole-3-carboxamide], half-maximal degradation (DC50) was put at 1.75 nM.

In turn, `Cc1cc(-c2n[nH]c3ncc(-c4ccc(N5CCN(CC6CCN(c7ccc(N8CCC(=O)NC8=O)cc7)CC6)CC5)cc4)cc23)ccc1CNC(=O)c1cnc(C(C)(C)C)s1` [Example 94, 2-(tert-butyl)-N-(4-(5-(4-(4-((1-(4-(2,4-dioxotetrahydropyrimidin-1(2H)-yl)phenyl)piperidin-4-yl)methyl)piperazin-1-yl)phenyl)-1H-pyrazolo[3,4-b]pyridin-3-yl)-2-methylbenzyl)thiazole-5-carboxamide] registered a DC50 of 13.1 nM.

`Cc1c(CNC(=O)c2noc(C(C)(C)C)n2)ccc(-c2n[nH]c3ncc(-c4ccc(C5CCN(CC6CCN(c7ccc(N8CCC(=O)NC8=O)cc7)CC6)CC5)cc4)cc23)c1F` [Example 221, 5-(tert-butyl)-N-(4-(5-(4-(1-((1-(4-(2,4-dioxotetrahydropyrimidin-1(2H)-yl)phenyl)piperidin-4-yl)methyl)piperidin-4-yl)phenyl)-1H-pyrazolo[3,4-b]pyridin-3-yl)-3-fluoro-2-methylbenzyl)-1,2,4-oxadiazole-3-carboxamide] had a DC50 of 1.12 nM.

Regarding `Cc1cc(-c2n[nH]c3ncc(-c4ccc(N5CCN(Cc6ccc(C7CCC(=O)NC7=O)c(F)c6)CC5)cc4)cc23)ccc1[C@@H](C)NC(=O)c1nc(C(C)(C)C)no1` (stereo partly drawn) [Example 215, 3-(tert-butyl)-N-((1R)-1-(4-(5-(4-(4-(4-(2,6-dioxopiperidin-3-yl)-3-fluorobenzyl)piperazin-1-yl)phenyl)-1H-pyrazolo[3,4-b]pyridin-3-yl)-2-methylphenyl)ethyl)-1,2,4-oxadiazole-5-carboxamide], it took 11.8 nM to reach half-maximal degradation (DC50).

For `Cc1cc(-c2n[nH]c3ncc(-c4ccc(C5CCN(CC6CCN(c7ccc(N8CCC(=O)NC8=O)cc7)CC6)CC5)nc4)cc23)ccc1CNC(=O)c1noc(C(C)(C)C)n1` [Example 63, 5-(tert-butyl)-N-(4-(5-(6-(1-((1-(4-(2,4-dioxotetrahydropyrimidin-1(2H)-yl)phenyl)piperidin-4-yl)methyl)piperidin-4-yl)pyridin-3-yl)-1H-pyrazolo[3,4-b]pyridin-3-yl)-2-methylbenzyl)-1,2,4-oxadiazole-3-carboxamide], the DC50 amounted to 4.22 nM.
